Earlier results on one compound are cited in patent US10085973B2, “Pharmaceutical composition containing a compound having a thrombopoietin receptor agonistic activity” (Shionogi & Co., Ltd., priority 2012, dated 2018).

The structures appear in SMILES notation. Like-named read-outs stand apart in the source and are kept apart here.

The series has as its system chronic liver disease patients with platelet count of less than 5×10^4/μL. The following applies: cited from earlier work.

As to `CC1=NN(c2ccc(C)c(C)c2)C(=O)/C1=N\Nc1cccc(-c2cccc(C(=O)O)c2)c1O` [Eltrombopag], for the setting “active drug group, administered for 2 weeks before invasive procedures”, the “avoidance of platelet transfusion” value was 72%. Also, the “incidence of portal vein thrombosis” value (active drug group) was 4%. The “risk of development of portal vein thrombosis” value was 10.6% (group having platelet count of 20×10^4/μL or higher during the investigation period) and 1.2% (group with platelet count of less than 20×10^4/μL). Moreover, the “risk of portal vein thrombosis, group 20×10^4/μL or higher vs group less than 20×10^4/μL” value (human, in vivo) was “about 9 times”. The “cases with platelet count 20×10^4/μL or higher at the time of development of portal vein thrombosis” value (out of 6 cases in the active drug group) is given as 5.
